This note sets out measurements from patent publication US12486255B2, “Modulators of RAS GTPase” (Tosk, Inc., priority 2018, dated 2025).

This assay concerns Capan-1 cells. Nature of the assay: Cytotoxicity assay, CellTiter-Glo 2.0, Capan-1 cells. As to conditions: Capan 1, human pancreatic cancer cell line expressing kRAS G12V; 48 hours. It counts as cell-based. On the procedure: FIG. 5, panels A-B, illustrates the cytotoxicity of Structure 2 and Structure 3 on Capan-1 cells. The cytotoxicity of compounds of interest were tested against the human pancreatic cancer cell line Capan-1 as described in the experimental section. Capan-1 cells express a mutant G12V kRAS. Compounds were incubated with cells for 48 hours and the assay was developed using Cell Titer Glo 2.0. IC50 vales were determined using GraphPad Prism 4.
Compounds were assayed for inhibition of cell proliferation and killing cancer cells. Cytotoxicity assays were conducted according to the following general procedure. SW480, SW48, SW900, SW620 were all maintained in Leibowitz L15 media supplemented with 10% fetal bovine serum and 1% PenStrep and grown in a 37° C. incubator without supplemental CO2. Capan-1 cells were maintained in Iscove's Modified Dulbecco's Medium (ATCC 30-2005) containing 20% fetal bovine serum and 1% PenStrep and grown in a 37° C. incubator containing 5% CO2.
For dose-response assays, SW480 cells were plated into 96 well plates (1 million/plate, ˜10,000/well, 250 μL media/well). Cells were allowed to settle and adhere to plate bottom overnight Compounds were placed in 500 μL media and mixed. Then 250 μL compounds+media was placed in an intermediate plate in row A. Rows B through H were filled with 125 μL media. […] Luminescence was read with FLx800 (BioTek Instruments).

Structures are written as SMILES.

In turn, `Cc1nc(-c2ccc(CNC(=O)c3cc(CC(C)C)nn3C)cc2)no1` [Structure 2, 3-isobutyl-1-methyl-N-(4-(5-methyl-1,2,4-oxadiazol-3-yl)benzyl)-1H-pyrazole-5-carboxamide] came in with a concentration for half-maximal inhibition (IC50) of 1300 nM.

Broadly, the IC50 is the midpoint of a concentration-inhibition curve. Read a low IC50 as greater potency in that assay.
